Values after ≈ are worked out from the molar mass of the structure shown. Active and inactive are the calls of the source. The rule behind the calls is not given here.
Tests used:
Pseudomonas aeruginosa [1] = assay: Antibacterial activity against Pseudomonas aeruginosa KCTC 1637 assessed as growth inhibition after 18 to 20 hrs by broth microdilution method in presence of NaCl; assay type: functional
[2] = test system: Staphylococcus epidermidis; assay: Antibacterial activity against Staphylococcus epidermidis KCTC 1917 assessed as growth inhibition after 18 to 20 hrs by broth microdilution method; assay type: functional
Salmonella typhimurium [3] = assay: Antibacterial activity against Salmonella typhimurium KCTC 1926 assessed as growth inhibition after 18 to 20 hrs by broth microdilution method; assay type: functional, Salmonella enterica subsp. enterica serovar Typhimurium; conditions: Salmonella enterica
Salmonella typhimurium [4] = assay: Antibacterial activity against Salmonella typhimurium KCTC 1926 assessed as growth inhibition after 18 to 20 hrs by broth microdilution method in presence of NaCl; assay type: functional, Salmonella enterica subsp. enterica serovar Typhimurium; conditions: Salmonella enterica
Staphylococcus aureus [5] = assay: Antibacterial activity against methicillin-resistant Staphylococcus aureus CCARM 3090 assessed as growth inhibition after 18 to 20 hrs by broth microdilution method; assay type: functional
Staphylococcus aureus [6] = assay: Antibacterial activity against Staphylococcus aureus KCTC 1621 assessed as growth inhibition after 18 to 20 hrs by broth microdilution method in presence of NaCl; assay type: functional
[7] = test system: Staphylococcus epidermidis; assay: Antibacterial activity against Staphylococcus epidermidis KCTC 1917 assessed as growth inhibition after 18 to 20 hrs by broth microdilution method in presence of NaCl; assay type: functional
Pseudomonas aeruginosa [8] = assay: Antibacterial activity against Pseudomonas aeruginosa KCTC 1637 assessed as growth inhibition after 18 to 20 hrs by broth microdilution method; assay type: functional
Escherichia coli [9] = assay: Antibacterial activity against Escherichia coli KCTC 1682 assessed as growth inhibition at 50 ug/ml after 18 to 20 hrs by broth microdilution method in presence of trypsin; assay type: functional, organism-based
Staphylococcus aureus [10] = assay: Antibacterial activity against methicillin-resistant Staphylococcus aureus CCARM 3089 assessed as growth inhibition after 18 to 20 hrs by broth microdilution method; assay type: functional
Escherichia coli [11] = assay: Antibacterial activity against Escherichia coli KCTC 1682 assessed as growth inhibition after 18 to 20 hrs by broth microdilution method in presence of NaCl; assay type: functional
[12] = Hemolytic activity in human RBC assessed as hemoglobin release after 1 hr; assay type: ADME, cell-based, Erythrocyte; conditions: red blood cells (RBC)
Bacillus subtilis [13] = assay: Antibacterial activity against Bacillus subtilis KCTC 3068 assessed as growth inhibition after 18 to 20 hrs by broth microdilution method in presence of NaCl; assay type: functional
Staphylococcus aureus [14] = assay: Antibacterial activity against Staphylococcus aureus KCTC 1621 assessed as growth inhibition after 18 to 20 hrs by broth microdilution method; assay type: functional
Escherichia coli [15] = assay: Antibacterial activity against Escherichia coli KCTC 1682 assessed as growth inhibition after 18 to 20 hrs by broth microdilution method; assay type: functional
Staphylococcus aureus [16] = assay: Antibacterial activity against Staphylococcus aureus KCTC 1621 assessed as growth inhibition at 50 ug/ml after 18 to 20 hrs by broth microdilution method in presence of trypsin; assay type: functional, organism-based
Bacillus subtilis [17] = assay: Antibacterial activity against Bacillus subtilis KCTC 3068 assessed as growth inhibition after 18 to 20 hrs by broth microdilution method; assay type: functional
Staphylococcus aureus [18] = assay: Antibacterial activity against methicillin-resistant Staphylococcus aureus CCARM 3095 assessed as growth inhibition after 18 to 20 hrs by broth microdilution method; assay type: functional
Staphylococcus aureus [19] = assay: Antibacterial activity against Staphylococcus aureus KCTC 1621 assessed as disruption of cellular structure at 3 x MIC after 1 hr by transmission electron microscopic analysis; assay type: functional, organism-based
Escherichia coli [20] = assay: Antibacterial activity against Escherichia coli KCTC 1682 assessed as disruption of cellular structure at 3 x MIC after 1 hr by transmission electron microscopic analysis; assay type: functional, organism-based

Row | Structure (SMILES) | MIC (Pseudomonas aeruginosa [1]) | MIC [2] | MIC (Salmonella typhimurium [3]) | MIC (Salmonella typhimurium [4]) | MIC (Staphylococcus aureus [5]) | MIC (Staphylococcus aureus [6]) | MIC [7] | MIC (Pseudomonas aeruginosa [8]) | growth inhibition (GI) (Escherichia coli [9]) | MIC (Staphylococcus aureus [10]) | MIC (Escherichia coli [11]) | HC50 at 1 h [12] | MIC (Bacillus subtilis [13]) | MIC (Staphylococcus aureus [14]) | MIC (Escherichia coli [15]) | growth inhibition (GI) (Staphylococcus aureus [16]) | MIC (Bacillus subtilis [17]) | MIC (Staphylococcus aureus [18]) | Activity (Staphylococcus aureus [19]) | Activity (Escherichia coli [20])
1 | CCCCCCCCCCn1cncc1C[C@H](NC(=O)[C@@H](N)CCCNC(=N)N)C(=O)N[C@@H](CCCNC(=N)N)C(N)=O | 16 µg/mL | 2 µg/mL (≈ 3.3 µM) | 32 µg/mL (≈ 52.7 µM) | > 64 µg/mL | 8 µg/mL (≈ 13.2 µM) | 32 µg/mL | 32 µg/mL | 16 µg/mL (≈ 26.4 µM) | Active | 8 µg/mL (≈ 13.2 µM) | > 64 µg/mL | > 256 µg/mL | 8 µg/mL | 4 µg/mL (≈ 6.59 µM) | 16 µg/mL (≈ 26.4 µM) | Active | 2 µg/mL (≈ 3.3 µM) | 8 µg/mL (≈ 13.2 µM) | – | –
2 | CCCCCCCn1c[n+](CCCCCCC)cc1C[C@H](NC(=O)[C@@H](N)CCCNC(=N)N)C(=O)N[C@@H](CCCNC(=N)N)C(N)=O | 8 µg/mL | 2 µg/mL | 8 µg/mL | 32 µg/mL | 8 µg/mL | 8 µg/mL | 16 µg/mL | 8 µg/mL | Active | 4 µg/mL | > 32 µg/mL | > 256 µg/mL | 8 µg/mL | 4 µg/mL | 4 µg/mL | Active | 2 µg/mL | 4 µg/mL | Active | Active
3 | CC[C@H](C)[C@H](NC(=O)CN)C(=O)NCC(=O)N[C@@H](C)C(=O)N[C@H](C(=O)N[C@@H](CC(C)C)C(=O)N[C@@H](CCCCN)C(=O)N[C@H](C(=O)N[C@@H](CC(C)C)C(=O)N[C@H](C(=O)N[C@H](C(=O)NCC(=O)N[C@@H](CC(C)C)C(=O)N1CCC[C@H]1C(=O)N[C@@H](C)C(=O)N[C@@H](CC(C)C)C(=O)N[C@H](C(=O)N[C@@H](CO)C(=O)N[C@@H](Cc1c[nH]c2ccccc12)C(=O)N[C@H](C(=O)N[C@@H](CCCCN)C(=O)N[C@@H](CCCNC(=N)N)C(=O)N[C@@H](CCCCN)C(=O)N[C@@H](CCCNC(=N)N)C(=O)N[C@@H](CCC(N)=O)C(=O)N[C@@H](CCC(N)=O)C(N)=O)[C@@H](C)CC)[C@@H](C)CC)[C@@H](C)O)[C@@H](C)O)C(C)C)C(C)C | – | – | – | – | – | – | – | – | inactive | – | – | – | – | – | – | inactive | – | – | – | –
4 | CCCCCCCCCCn1c[n+](CCCCCCCCCC)cc1C[C@H](NC(=O)[C@H](CCCNC(=N)N)NC(=O)[C@@H](N)CCCNC(=N)N)C(N)=O | 8 µg/mL | 8 µg/mL | 8 µg/mL | 16 µg/mL | 8 µg/mL | 4 µg/mL | 4 µg/mL | 8 µg/mL | Active | 8 µg/mL | 16 µg/mL | 116 µg/mL | 4 µg/mL | 8 µg/mL | 16 µg/mL | Active | 8 µg/mL | 8 µg/mL | Active | Active
5 | CCCCCCCCCCn1c[n+](CCCCCCCCCC)cc1C[C@H](N)C(=O)N[C@@H](CCCNC(=N)N)C(N)=O | 8 µg/mL | 2 µg/mL | 4 µg/mL | 8 µg/mL | 4 µg/mL | 2 µg/mL | 2 µg/mL | 8 µg/mL | Active | 2 µg/mL | 8 µg/mL | 49 µg/mL | 2 µg/mL | 2 µg/mL | 4 µg/mL | Active | 2 µg/mL | 2 µg/mL | – | –
6 | CCCCCCCCCCCCCCn1c[n+](CCCCCCCCCCCCCC)cc1C[C@H](NC(=O)[C@@H](N)CCCNC(=N)N)C(=O)N[C@@H](CCCNC(=N)N)C(N)=O | > 64 µg/mL | > 64 µg/mL | > 64 µg/mL | > 64 µg/mL | > 64 µg/mL | > 64 µg/mL | > 64 µg/mL | > 64 µg/mL | – | > 64 µg/mL | > 64 µg/mL | > 256 µg/mL | > 64 µg/mL | > 64 µg/mL | > 64 µg/mL | – | > 64 µg/mL | > 64 µg/mL | – | –
7 | CC[C@H](C)[C@H](NC(=O)[C@H](CCCCN)NC(=O)[C@H](CCC(=O)O)NC(=O)[C@H](CCCCN)NC(=O)[C@H](CO)NC(=O)[C@H](CCCCN)NC(=O)[C@H](CCCNC(=N)N)NC(=O)[C@H](Cc1ccccc1)NC(=O)[C@H](Cc1ccccc1)NC(=O)[C@H](CC(=O)O)NC(=O)CNC(=O)[C@H](CC(C)C)NC(=O)[C@@H](N)CC(C)C)C(=O)NCC(=O)N[C@@H](CCCCN)C(=O)N[C@@H](CCC(=O)O)C(=O)N[C@@H](Cc1ccccc1)C(=O)N[C@@H](CCCCN)C(=O)N[C@@H](CCCNC(=N)N)C(=O)N[C@H](C(=O)N[C@H](C(=O)N[C@@H](CCC(N)=O)C(=O)N[C@@H](CCCNC(=N)N)C(=O)N[C@H](C(=O)N[C@@H](CCCCN)C(=O)N[C@@H](CC(=O)O)C(=O)N[C@@H](Cc1ccccc1)C(=O)N[C@@H](CC(C)C)C(=O)N[C@@H](CCCNC(=N)N)C(=O)N[C@@H](CC(N)=O)C(=O)N[C@@H](CC(C)C)C(=O)N[C@H](C(=O)N1CCC[C@H]1C(=O)N[C@@H](CCCNC(=N)N)C(=O)N[C@H](C(=O)N[C@@H](CCC(=O)O)C(=O)N[C@@H](CO)C(N)=O)[C@@H](C)O)C(C)C)[C@@H](C)CC)C(C)C)[C@@H](C)CC | 64 µg/mL | 16 µg/mL (≈ 3.56 µM) | 16 µg/mL (≈ 3.56 µM) | 32 µg/mL | > 32 µg/mL | > 64 µg/mL | > 64 µg/mL | 64 µg/mL (≈ 14.2 µM) | inactive | > 32 µg/mL | 16 µg/mL | > 256 µg/mL | 16 µg/mL | 32 µg/mL (≈ 7.12 µM) | 32 µg/mL (≈ 7.12 µM) | inactive | 32 µg/mL (≈ 7.12 µM) | > 32 µg/mL | – | –
8 | CCCCCCC/C=C/Cn1cncc1C[C@H](NC(=O)[C@@H](N)CCCNC(=N)N)C(=O)N[C@@H](CCCNC(=N)N)C(N)=O | 64 µg/mL | 4 µg/mL (≈ 6.61 µM) | 64 µg/mL (≈ 106 µM) | 64 µg/mL | 16 µg/mL (≈ 26.5 µM) | 32 µg/mL | 64 µg/mL | 32 µg/mL (≈ 52.9 µM) | – | 16 µg/mL (≈ 26.5 µM) | > 64 µg/mL | > 256 µg/mL | 16 µg/mL | 8 µg/mL (≈ 13.2 µM) | 32 µg/mL (≈ 52.9 µM) | – | 4 µg/mL (≈ 6.61 µM) | 16 µg/mL (≈ 26.5 µM) | – | –
